The term GI50 denotes the concentration at which growth is held to half of that of the control. A high value points to less potent growth inhibition. What is called IC50 is the concentration needed to halve the response being measured.

Bounds are passed on as bounds.

In one assay the test system is MDA.MB-231. Nature of the assay: Cancer cell cytotoxicity assay, MDA.MB-231. The format is cell-based. Conditions: Homo sapiens; MDA.MB-231, Breast Cancer. The method, then:
(§1) The effect of the compounds of the invention on tumor cells was determined by the assay described by Latham et al., Oncogene 12:827-837 (1996). Tumor cells K562 (chronic myelogenous leukemia; leukemia cell line +ve for Bcr-Abl) or DU145 (prostate cancer) were plated in 12-well dishes at a cell density of 2.5×10^4 cells well. The plated cells were treated 24 hours later with a compound of the invention dissolved in DMSO at multiple concentrations ranging from 0.01 μM to 100 μM. The plates were examined 96 hours later under an inverted microscope, Olympus CK-2 using a 10× objective, and compound activity was noted by physical observation. When necessary, the total number of viable cells was determined by trypsinizing the wells and counting the number of viable cells, as determined by trypan blue exclusion, using a hemacytometer. Where “Lower” and “Upper” value are provided in Table 5, the IC50 was determined to be within that range. […]
(§2) The cytotoxicity of Compound 42, (Z)-6-((2,6-dichlorobenzyl)sulfonyl)-2-(4-hydroxy-3-nitrobenzylidene)-2H-benzo[b][1,4]thiazin-3(4H)-one, was determined according the assay method of Example 7 on the prostate (androgen dependent or independent), breast and pancreatic cancer cell lines listed in Table 6A, below, and the additional cell lines listed in Table 6B, below. […]

A further assay concerns MDA.MB-468. Nature of the assay: Cancer cell cytotoxicity assay, MDA.MB-468. As to conditions: Homo sapiens; MDA.MB-468, Breast Cancer. The format is cell-based. The method, then:
as §1, §2

The next assay concerns MiaPaca 2. The assay can be described thus: Cancer cell cytotoxicity assay, MiaPaca 2. The format is cell-based. As to conditions: Homo sapiens, MIA PaCa-2; MiaPaca 2, Pancreatic Cancer. The method, then: as §1, §2
The next assay relates to HMSC.hTERT. The assay can be described thus: Cytotoxicity assay, human mesenchymal stem cell line HMSC.hTERT. The format is cell-based. The method, then:
as §1, §2

A further assay deals with PC3. The assay can be described thus: Cancer cell cytotoxicity assay, PC3. The format is cell-based. As to conditions: Homo sapiens, PC-3; PC3, Prostate Cancer. Here is the method:
as §1, §2

Another assay concerns 22Rv1. The assay can be described thus: Cancer cell cytotoxicity assay, 22Rv1. The format is cell-based. Conditions: Homo sapiens; 22Rv1, Prostate Cancer. Here is the method:
as §1, §2

Another assay concerns VCAP. Nature of the assay: Cancer cell cytotoxicity assay, VCAP. Conditions: Homo sapiens, Prostate Cancer. Type of assay: cell-based. The method, then:
as §1, §2

The subject of a further assay is MCF10A. Nature of the assay: Cytotoxicity assay, MCF10A. Conditions: Homo sapiens, MCF-10A, Normal Breast. The format is cell-based. The method, then: as §1, §2
A further assay has as its system H23. The assay can be described thus: Cancer cell cytotoxicity assay, H23. Type of assay: cell-based. As to conditions: Homo sapiens, NCI-H23; H23, Non-small cell lung cancer. The method, then:
as §1, §2

A further assay relates to Z138C. Nature of the assay: Cancer cell cytotoxicity assay, Z138C. Type of assay: cell-based. As to conditions: Mantle cell lymphoma. The method, then: as §1, §2
In another assay the test system is U266B1. Nature of the assay: Cancer cell cytotoxicity assay, U266B1. Type of assay: cell-based. As to conditions: U266B1, Multiple Myeloma. Here is the method:
as §1, §2

The subject of the next assay is HFL. The assay can be described thus: Cytotoxicity assay, normal human fibroblast cell line HFL. The format is cell-based. Here is the method:
as §1, §2

Another assay has as its target T1, CK2α (Homo sapiens, UniProt P68400).
T1 construct: CK2α (human full length protein)
The assay can be described thus: Casein kinase 2 inhibition, CK2α subunit (32P-ATP kinase assay). The format is biochemical. Conditions: 20 μM cold ATP; 30 min preincubation, 20 min at 30° C. Here is the method:
The ability of Compound 42 to inhibit the activity of casein kinase 2 (CK2) was determined as follows using the catalytic CK2 subunits CK2α and CK2α2. Two and one half nanograms of CK2α (human full length protein; Invitrogen PV3248), 2.5 ng of a CK2α form containing amino acids 3-339) or 10 ng of CK2α2 (human full length protein; Invitrogen PV3624) was diluted into kinase buffer (20 mM Tris pH 7.5, 10 mM MgCl2, 0.01% NP-40, 1 mM EGTA, 2 mM DTT) and incubated with varying concentrations of Compound 42 at room temperature for 30 minutes. Kinase reactions were initiated by the addition of 1 μg of CK2 substrate α-synuclein or 40 μM CK2 synthetic peptide substrate (AnaSpec, San Jose, Calif.), 20 μM cold ATP, and 20 μCi γ-^32P-ATP. The reactions were incubated at 30° C. for 20 minutes, terminated by the addition of 2× Laemmle sample buffer, boiled for 2 minutes, resolved by 12% acrylamide SDS-PAGE, and subjected to autoradiography.

The target in a further assay is T2, CDK9 (Homo sapiens, UniProt P50750).
T2 construct: CDK9 (human full length protein; Invitrogen PV4335); purchased Invitrogen PV4335
The assay can be described thus: CDK9 inhibition (32P-ATP kinase assay). The format is biochemical. As to conditions: PDKtide substrate, 20 μM cold ATP. The method, then: The ability of Compound 42 to inhibit the activity of the kinase CDK9 was determined as follows. Twenty-five nanograms of CDK9 (human full length protein; Invitrogen PV4335) was diluted into kinase buffer (20 mM Tris pH 7.5, 10 mM MgCl2, 0.01% NP-40, 1 mM EGTA, 2 mM DTT) and incubated with varying concentrations of Compound 42 at room temperature for 30 minutes. The kinase reactions were initiated by the addition of 20 μM of CDK9/Cyclin K specific synthetic peptide substrate (PDKtide, P10-58, SignalChem), 20 μM cold ATP, and 20 μCi γ-32P-ATP. The reactions were incubated at 30° C. for 20 minutes and terminated by the addition of 0.5M o-Phosphoric acid. 10 μl of the reaction mixture was spotted on a P-30 Filtermat (PerkinElmer) and developed using autoradiography or phosphorimaging.

The target of a further assay is T3, PIM1 (Homo sapiens, UniProt P11309).
T3 construct: PIM1 (human full length protein; Invitrogen PV3503); purchased Invitrogen PV3503
Nature of the assay: PIM1 inhibition (32P-ATP kinase assay). As to conditions: K9 Peptide substrate, 20 μM cold ATP. Type of assay: biochemical. Here is the method:
The ability of Compound 42 to inhibit the activity of the kinase proto-ocogene pim-was determined as follows. Ten nanograms of PIM1 (human full length protein; Invitrogen PV3503) was diluted into kinase buffer (20 mM Tris pH 7.5, 10 mM MgCl2, 0.01% NP-40, 1 mM EGTA, 2 mM DTT) and incubated with varying concentrations of Compound 42 at room temperature for 30 minutes. The kinase reactions were initiated by the addition of 20 μM of PIM1 specific synthetic peptide substrate (K9 Peptide; p70S6 Kinase Substrate; AnaSpec, San Jose, Calif.), 20 μM cold ATP, and 20 μCi γ-^32P-ATP. The reactions were incubated at 30° C. for 20 minutes and terminated by the addition of 0.5M o-Phosphoric acid. 10 μl of the reaction mixture was spotted on a P-30 Filtermat (PerkinElmer) and developed using autoradiography or phosphorimaging.

Assay [1] relates to MDA.MB-231 breast cancer cells. The assay can be described thus: Cell cycle arrest in cancer cells. Type of assay: cell-based. Conditions: increasing concentrations. From the text:
MDA.MB-231 breast cancer cells treated with increasing concentrations Compound 42

T2 sequence (P50750 whole entry): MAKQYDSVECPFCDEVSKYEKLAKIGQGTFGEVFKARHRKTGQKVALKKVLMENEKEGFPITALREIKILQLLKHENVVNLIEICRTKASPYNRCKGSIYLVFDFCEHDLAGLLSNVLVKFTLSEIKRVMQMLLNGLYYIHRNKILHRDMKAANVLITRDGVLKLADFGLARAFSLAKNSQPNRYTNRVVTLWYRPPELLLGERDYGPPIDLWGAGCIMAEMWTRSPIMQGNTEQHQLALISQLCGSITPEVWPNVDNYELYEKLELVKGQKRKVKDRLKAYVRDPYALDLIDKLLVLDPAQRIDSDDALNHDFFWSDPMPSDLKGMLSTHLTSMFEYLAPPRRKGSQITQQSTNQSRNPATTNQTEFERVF
T2 sequence (O75909 whole entry partner): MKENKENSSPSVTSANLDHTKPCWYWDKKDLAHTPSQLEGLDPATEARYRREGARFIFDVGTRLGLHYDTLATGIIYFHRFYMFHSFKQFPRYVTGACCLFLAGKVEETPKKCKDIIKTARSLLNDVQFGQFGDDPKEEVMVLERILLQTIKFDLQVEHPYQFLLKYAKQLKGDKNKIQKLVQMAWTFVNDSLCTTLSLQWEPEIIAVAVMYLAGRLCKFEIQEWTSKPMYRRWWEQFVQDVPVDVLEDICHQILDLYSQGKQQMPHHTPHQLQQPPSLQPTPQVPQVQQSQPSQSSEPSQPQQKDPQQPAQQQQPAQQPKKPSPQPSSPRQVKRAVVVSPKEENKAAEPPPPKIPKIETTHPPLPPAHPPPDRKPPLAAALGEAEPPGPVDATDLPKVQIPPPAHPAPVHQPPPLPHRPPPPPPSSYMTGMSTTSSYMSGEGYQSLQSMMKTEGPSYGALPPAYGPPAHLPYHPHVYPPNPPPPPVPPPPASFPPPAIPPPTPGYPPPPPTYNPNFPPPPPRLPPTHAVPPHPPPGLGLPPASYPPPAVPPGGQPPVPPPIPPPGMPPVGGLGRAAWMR
T1 sequence (P68400 3-339 limits assumed): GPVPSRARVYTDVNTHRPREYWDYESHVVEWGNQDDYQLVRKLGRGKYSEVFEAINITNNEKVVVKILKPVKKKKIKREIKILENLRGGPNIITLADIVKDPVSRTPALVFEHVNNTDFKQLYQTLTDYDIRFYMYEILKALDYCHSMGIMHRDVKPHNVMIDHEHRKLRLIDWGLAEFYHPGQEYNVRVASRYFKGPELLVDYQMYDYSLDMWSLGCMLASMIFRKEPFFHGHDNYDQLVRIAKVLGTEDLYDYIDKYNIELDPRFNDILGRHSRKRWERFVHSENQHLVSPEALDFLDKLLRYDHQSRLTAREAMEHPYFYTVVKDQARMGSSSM
T3 sequence (P11309 whole entry): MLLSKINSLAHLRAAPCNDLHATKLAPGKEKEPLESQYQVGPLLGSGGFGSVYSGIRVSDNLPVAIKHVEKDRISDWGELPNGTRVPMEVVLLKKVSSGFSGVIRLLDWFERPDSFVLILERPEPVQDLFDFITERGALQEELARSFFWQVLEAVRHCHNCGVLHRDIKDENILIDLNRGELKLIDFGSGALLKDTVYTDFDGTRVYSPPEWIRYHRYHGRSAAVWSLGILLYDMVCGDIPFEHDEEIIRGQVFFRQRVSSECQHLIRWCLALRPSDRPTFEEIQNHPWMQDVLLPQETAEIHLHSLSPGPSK

For the compound `O=C1Nc2cc(S(=O)(=O)Cc3c(Cl)cccc3Cl)ccc2S/C1=C\c1ccc(O)c([N+](=O)[O-])c1` [Compound 42, (Z)-6-((2,6-dichlorobenzyl)sulfonyl)-2-(4-hydroxy-3-nitrobenzylidene)-2H-benzo[b][1,4]thiazin-3(4H)-one], the GI50 in the assay with MDA.MB-231 was 120 nM; in the assay with MDA.MB-468, 200 nM; in the assay with MiaPaca 2, 90 nM; in the assay with HMSC.hTERT (Human Mesenchymal Stem cells), more than 10000 nM; in the assay with PC3 it was 160 nM; with 22Rv1, 500 nM. Moreover, the GI50 with VCAP was 180 nM; in the assay on MCF10A, 2500 nM; in the assay on H23, 65 nM; in the assay on Z138C, 70 nM; in the assay with U266B1 it was 100 nM; in the assay with HFL (Homo sapiens, Normal Fibroblast), more than 10000 nM. Besides, the “cell death in the normal human stem cell line” value in the assay on HMSC.hTERT is on record as “did not cause cell death”. Moreover, in the assay on HFL, the “cell death in the normal human fibroblast cell line” value is “did not cause cell death”. Besides, the IC50 at CK2α came to 362 nM; at CDK9, 93.7 nM; against PIM1, 226 nM. Also, in assay [1], the “cell cycle arrest in cancer cells” value was “induces cell cycle arrest”.
